Source: PubChem BioAssay (NCI)
“And” between values parts separate entries of the source, which are not always exact repeats. Identical values can stand only once.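 96-well plates; 48 h exposure; 5 concentrations. Endpoints by linear interpolation between flanking doses. Not reached: highest tested concentration assigned. Abbreviation: GI50, concentration required for 50% inhibition of growth. The concentration for full growth arrest is given as TGI.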

How the values were obtained:
Assay in all cases: growth of human tumour cells (NCI), 48 h
[1] = test system: 786-0 renal
[2] = test system: UO-31 renal
[3] = test system: SNB-75 CNS
[4] = test system: MOLT-4 leukemia
[5] = test system: HL-60(TB) leukemia
[6] = test system: SN12C renal
[7] = test system: NCI-H522 lung
[8] = test system: PC-3 prostate
[9] = test system: K-562 leukemia
[10] = test system: RXF 393 renal

Row | SMILES | TGI [1] | TGI [2] | TGI [3] | TGI [4] | TGI [5] | TGI [6] | TGI [7] | TGI [8] | TGI [9] | TGI [10] | GI50 [1] | GI50 [3] | GI50 [4] | GI50 [5] | GI50 [6] | GI50 [7] | GI50 [10] | GI50 [2] | GI50 [8] | GI50 [9]
1 | COc1cc(OC)c(OC)cc1/C=C/c1ccccn1 | > 10 µM | > 10 µM | > 10 µM | > 10 µM | > 10 µM | > 10 µM | > 10 µM | > 10 µM | > 10 µM | > 10 µM | – | – | – | – | – | – | – | – | – | –
2 | COC1C(OC(=O)/C=C/C=C/C=C/C=C/C(=O)O)CCC2(CO2)C1C1(C)OC1CC=C(C)C (stereo unspecified) | > 100 µM | > 82.2 µM | > 86.4 µM | 78.7 µM | 70.6 µM | – | – | 73.1 µM | > 89.6 µM | – | 0.31 µM | 0.287 µM | 0.347 µM | 0.187 µM | 0.225 µM | 0.137 µM | 0.265 µM | – | – | –
3 | CCCN1CCC(Oc2cc(Nc3nc(Nc4cccc(F)c4C(N)=O)c4cc[nH]c4n3)c(OC)cc2Cl)CC1 | 7.52 µM | 8.93 µM | 7.79 µM | 7.97 µM | 8.31 µM | 7.99 µM | 7.9 µM | 6.73 µM | 1.73 µM | 6.03 µM | 3.65 µM | 3.22 µM | 3.48 µM | 2.54 µM | 3.97 µM | 3.98 µM | 2.28 µM | 2.94 µM | 2.55 µM | 0.62 µM
4 | COCCn1c(Nc2ccc(C(=O)NO)cc2)nc2ccccc21 | 23.5 µM | 17.1 µM | 19.1 µM | > 100 µM | > 100 µM | 47.4 µM | 13.6 µM | > 100 µM | > 100 µM | 3.91 µM | 10.5 µM | 2.62 µM | 3.86 µM | 3.63 µM | 7.28 µM | 2.28 µM | 0.846 µM | 2.25 µM | 8.78 µM | 3.03 µM
5 | CC(=O)Oc1ccc2c(c1)O/C(=C\c1ccc(N(C)C)cc1)C2=O | > 100 µM | > 100 µM | > 100 µM | > 100 µM | > 100 µM | > 100 µM | 66.2 µM | > 100 µM | > 100 µM | > 100 µM | – | – | – | – | – | – | – | – | – | –
6 | CCCCCCCCCCCC(c1ccccc1)[N+](C)(C)C (stereo unspecified) | 3.55 µM | 26.9 µM | 2.55 µM | 4.02 µM | 1.47 µM | 3.77 µM | 1.97 µM | 2.52 µM | 4.09 µM | 2.26 µM | 1.63 µM | 1.15 µM | 1.36 µM | 0.291 µM | 1.59 µM | 0.294 µM | 0.451 µM | 10.7 µM | 0.393 µM | 0.673 µM
7 | CN(C)CCN1C(=O)c2cccc3cc(N)cc(c23)C1=O | > 81.6 µM and 23 µM | 43.1 µM and 12.8 µM | 17 µM and 16.7 µM | > 100 µM and 13.5 µM | 59.2 µM and 16.2 µM | > 56.9 µM and 16.3 µM | 11.6 µM and 10.3 µM | 42.8 µM and 8.73 µM | > 100 µM and 37.4 µM | 18.1 µM and 10.6 µM | 4.16 µM | 3.81 µM | 1.88 µM | 5.29 µM | 2.83 µM | 3.21 µM | – | 2.09 µM | 4.07 µM | –
8 | O=C(c1ccccc1)c1nc2ccc(Cl)cc2cc1C(Br)Br | 0.378 µM | 1.27 µM | 1.41 µM | 11.8 µM | 1.07 µM | 0.836 µM | 3.68 µM | 0.744 µM | 3.55 µM | 0.361 µM | – | – | – | – | – | – | – | – | – | –
9 | CC(C)(Sc1cc(C(C)(C)C)c(O)c(C(C)(C)C)c1)Sc1cc(C(C)(C)C)c(O)c(C(C)(C)C)c1 | > 100 µM | > 100 µM | > 100 µM | – | 3.08 µM | > 100 µM | > 100 µM | > 100 µM | 3.35 µM | > 100 µM | – | – | – | – | – | – | – | – | – | –
10 | Cc1cc(NC(=O)NCCCOc2ccc(N3C(N)=NC(N)=NC3(C)C)cc2Cl)ccc1S(=O)(=O)F | > 100 µM | > 100 µM | 24.4 µM | > 96.1 µM | 28.9 µM | > 100 µM | 25.2 µM | 44 µM | > 100 µM | > 100 µM | 2.46 µM | 1.2 µM | 1.14 µM | 0.647 µM | 0.558 µM | 1.11 µM | 13.5 µM | > 82.4 µM | 0.376 µM | 0.318 µM
11 | COc1cccc(C2CC(C)(O)Oc3cc4c(cc32)OCO4)c1 (stereo unspecified) | > 100 µM | 72.2 µM | 61.7 µM | 60.5 µM | > 100 µM | > 100 µM | 30.6 µM | > 100 µM | > 100 µM | > 100 µM | – | – | – | – | – | – | – | – | – | –
12 | Clc1ccc(NCNC2Nc3ccccc3N2)cc1Cl | > 100 µM | > 100 µM | > 100 µM | > 100 µM | > 100 µM | > 100 µM | 56.2 µM | > 100 µM | > 100 µM | > 100 µM | – | – | – | – | – | – | – | – | – | –
13 | CC[C@@H]1C(=O)N(C)c2cnc(Nc3ccc(C(=O)NC4CCC(N5CCN(CC6CC6)CC5)CC4)cc3OC)nc2N1C(C)C (stereo partly specified) | > 3.29 µM and 1.28 µM | > 10 µM and 7.53 µM | 6.73 µM | > 5.38 µM and 1.28 µM | 0.0596 µM and 0.0871 µM | > 10 µM and 15.1 µM | 0.0822 µM and 0.0564 µM | > 10 µM and 17.7 µM | > 10 µM and 1.83 µM | > 9.08 µM and 4.9 µM | 0.0614 µM and 0.0721 µM | 0.0296 µM and 0.0344 µM | 0.0116 µM and 0.019 µM | 0.00286 µM and < 0.0167 µM | 0.0917 µM and 0.173 µM | 0.00462 µM and < 0.0115 µM | 0.0349 µM and 0.0393 µM | 0.234 µM and 0.345 µM | 0.0287 µM and 0.0366 µM | 0.00946 µM and 0.0288 µM
14 | CN1CCC2(CC1)C(=O)Nc1cc(NC(=O)c3ccc4c(c3)C[C@@H]3C(C)(C)[C@H](O)[C@H](F)C[C@@]3(C)O4)ccc12 | 14.9 µM | 19.1 µM | 4.8 µM | 1.5 µM | 13.7 µM | > 100 µM | 33.2 µM | > 100 µM | > 100 µM | 10.6 µM | 0.249 µM | 0.0373 µM | 0.0342 µM | 0.0842 µM | 13.2 µM | 10.8 µM | 0.0497 µM | 4.67 µM | 0.117 µM | 0.201 µM
15 | CCOC(=O)c1sc2nc(=S)[nH]c(NC(N)=S)c2c1C | 45.5 µM | 61.7 µM | 66.6 µM | > 100 µM | > 100 µM | 26.9 µM | 55 µM | 94.6 µM | > 100 µM | 47.2 µM | 21.5 µM | 21.4 µM | 30.1 µM | 51.2 µM | 13.1 µM | 20.7 µM | 19.1 µM | 20.3 µM | 22.7 µM | 28.3 µM
